US20240124504A1, “AROMATIC HETEROCYCLIC COMPOUND, AND PHARMACEUTICAL COMPOSITION AND APPLICATION THEREOF” (GT APEIRON THERAPEUTICS LIMITED, priority 2020, published 2024)

Tests used:
[1] = target: T1, CDK12 (aa686-1082)/cyclinK complex (Homo sapiens, UniProt Q9NYV4); test: In-vitro enzymatic inhibitory activity testing, CDK12 inhibition assay (Caliper EZ Reader II); format: biochemical; conditions: CDK12/cyclinK 50 nM, 180 min at 27° C.; read-out: CDK12 IC50
T1 construct: A CDK12 (aa686-1082)/cyclinK complex (50 nM)
T1 sequence (Q9NYV4 686-1082, species assumed): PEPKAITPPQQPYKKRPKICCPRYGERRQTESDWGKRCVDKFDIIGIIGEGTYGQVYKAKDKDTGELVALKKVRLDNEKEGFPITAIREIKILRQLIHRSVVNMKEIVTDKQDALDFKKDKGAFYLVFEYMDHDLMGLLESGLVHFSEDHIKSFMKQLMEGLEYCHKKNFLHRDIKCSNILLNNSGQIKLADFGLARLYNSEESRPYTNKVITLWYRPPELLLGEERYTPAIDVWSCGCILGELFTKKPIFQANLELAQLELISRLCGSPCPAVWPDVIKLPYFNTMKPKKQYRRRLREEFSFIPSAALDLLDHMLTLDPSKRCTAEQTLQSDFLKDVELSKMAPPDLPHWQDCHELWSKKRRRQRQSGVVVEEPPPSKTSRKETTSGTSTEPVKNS
T1 sequence (O75909 whole entry partner, species assumed, the tested form may be a part): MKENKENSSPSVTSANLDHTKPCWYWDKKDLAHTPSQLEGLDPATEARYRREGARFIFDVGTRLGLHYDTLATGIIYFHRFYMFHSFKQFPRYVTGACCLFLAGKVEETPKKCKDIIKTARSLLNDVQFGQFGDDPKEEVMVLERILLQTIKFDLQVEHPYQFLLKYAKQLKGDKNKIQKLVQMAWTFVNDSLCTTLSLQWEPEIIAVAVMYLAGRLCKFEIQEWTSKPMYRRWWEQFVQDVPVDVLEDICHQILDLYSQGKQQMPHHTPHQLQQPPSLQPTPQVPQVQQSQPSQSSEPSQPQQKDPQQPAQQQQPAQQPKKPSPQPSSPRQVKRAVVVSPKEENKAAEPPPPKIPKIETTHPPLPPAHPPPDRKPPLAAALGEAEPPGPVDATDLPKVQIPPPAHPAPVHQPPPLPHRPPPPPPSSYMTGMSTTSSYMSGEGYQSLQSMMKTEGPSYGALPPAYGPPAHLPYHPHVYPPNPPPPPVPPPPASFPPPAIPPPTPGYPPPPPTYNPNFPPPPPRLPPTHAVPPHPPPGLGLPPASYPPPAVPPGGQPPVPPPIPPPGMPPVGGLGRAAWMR
Procedure: An assay was carried out in a U-bottom 384-well plate (coming, 4512#), and the reaction temperature was 27° C. CDK7/CyclinH was diluted in an assay buffer (20 mM MES PH 6.75, 0.01% Tween 20, 50 ug/mL BSA, 6 mM MgCl2) to afford a corresponding enzyme solution with the 2.4× concentration. CDK2/CyclinE1 was diluted in an assay buffer (20 mM MES PH 6.75, 0.01% Tween 20, 50 ug/mL BSA, 6 mM MgCl2) to afford a corresponding enzyme solution with the 2.4× concentration. CDK9/CyclinT1 was diluted in an assay buffer (20 mM MES PH 6.75, 0.01% Tween 20, 50 ug/mL BSA, 10 mM MgCl2) to afford a corresponding enzyme solution with the 2.4× concentration. CDK12/CyclinK was diluted in an assay buffer (80 mM MES PH 6.5, 0.01% Tween 20, 50 ug/mL BSA, 10 mM MgCl2) to afford a corresponding enzyme solution with the 2.4 concentration. A compound was dissolved in dimethyl sulfoxide (DMSO) at a concentration of 10 mM. During use, the compound was diluted with DMSO into 10 concentration gradients from 25 nM to 500 uM, and respectively diluted by 8.3 folds in the assay buffer to afford a compound solution with a 6× concentration. A polypeptide substrate and ATP were diluted in the assay buffer to afford a polypeptide substrate and ATP mixed solution with a 2.4× concentration. 2 ul of a test compound solution was mixed with 5 ul of the enzyme solution; after incubation for 10 min, 5 ul of the polypeptide substrate and ATP mixed solution was added; incubation was carried out for 180 min at 27° C.; and then, the reaction was terminated by adding 4 uL of EDTA with a concentration of 120 mM to each sample. […]. Specifically, a CDK7/cyclinH/MAT1 complex (6 nM) and a “5-FAMCD K 7 tide” peptide substrate (2 μM, synthetic fluorophore-labeled peptide with the following sequence: 5-FAM-[…], wherein “5-FAM” refers to 5-carboxyfluorescein) were used for a CDK7 inhibition assay. A CDK9/cyclinT1 complex (8 nM) and a “5-FAM-CDK9tide” peptide substrate (2 IM, synthetic fluorophore-labeled peptide with the following sequence: 5-FAM-GSRTPMY-NH2, wherein 5-FAM was as defined above and NH2 represented C-terminal amide) were used for a CDK9 inhibition assay. A CDK12 (aa686-1082)/cyclinK complex (50 nM) and “5-FAM-CDK9tide” (2 μM) as defined above were used for a CDK12 inhibition assay. A CDK2/cyclinE1 complex (0.5 nM) and “5-FAM-CDK7tide” (2 μM) as defined above were used for CDK2 inhibition assay.
(§1) A reaction mixture was analyzed on Caliper EZ Reader II by electrophoretic separation of a fluorogenic substrate and a phosphorylated product. Data were calculated by using GraphPad Prism version 6.0, and IC50 values were adjusted and obtained by using a nonlinear regression model of a dose response curve.

[2] = tested on: ovarian cancer A2780; test: Cell biological activity detection (CyQuant, 72 hours), A2780; format: cell-based, human; conditions: A2780 cells, incubation for 72 hours
Procedure: (§2) A2780 and HCC70 cells were subjected to trypsin digestion treatment, and cell suspensions were respectively transferred to 15 mL centrifuge tubes and centrifuged for 5 min at […]) rpm; supernatant was discarded, and resuspension was carried out in a fresh medium (RPMI 1640+10% FBS), after counting, cells were seeded into a 384-well plate at 2000/well (50 μL of 1640+10% FBS medium was added to the 2nd column and the 23rd column of the 384-well plate, and 50 μL of DPBS was added to the surrounding wells). Incubation was carried out overnight in an incubator (37° C., 5% CO2).
(§3) The compound was added to the well plates the next day. The compound had the highest concentration of 10 μM and was diluted at 1:4, and there were a total of 9 concentrations; and a positive compound Paclitaxel had the highest concentration of 1 μM and was diluted at 1:3, and there were a total of 9 concentrations. The DMSO content in each well was unified to 0.2%. The cell plates were centrifuged for 30 seconds at 800 rpm and placed in an incubator (37° C., 5% CO2) for incubation for 72 hours. On the fourth day, a Cyquant reagent (3×) was formulated according to kit instructions, and formulation was carried out for each 384-well plate according to the following proportions: DPBS 11.568 mL, CyQuant®? Direct nucleic acid stain 72 μL, and CyQuant® Direct background suppressor 360 μL. After uniform mixing, the reagent was placed at room temperature for further use. The cell plates were taken out and equilibrated for 30 min at room temperature, and 25 μL of the Cyquant reagent (3×) per well was dispensed into the cells of the 384-well plates by Multi-drop, and incubation was carried out for more than 60 minutes at 37° C. Acumen plate reading (Acumen setting: an excitation wavelength of 488 nm). IC50 results were analyzed by XLFIT5 from IDBS Company.

[3] = target: CDK9/cyclinT1 complex (Homo sapiens, UniProt P50750); test: In-vitro enzymatic inhibitory activity testing, CDK9 inhibition assay (Caliper EZ Reader II); format: biochemical; conditions: CDK9/cyclinT1 8 nM, 180 min at 27° C.
CDK9/cyclinT1 complex, sequence (P50750 whole entry, species assumed): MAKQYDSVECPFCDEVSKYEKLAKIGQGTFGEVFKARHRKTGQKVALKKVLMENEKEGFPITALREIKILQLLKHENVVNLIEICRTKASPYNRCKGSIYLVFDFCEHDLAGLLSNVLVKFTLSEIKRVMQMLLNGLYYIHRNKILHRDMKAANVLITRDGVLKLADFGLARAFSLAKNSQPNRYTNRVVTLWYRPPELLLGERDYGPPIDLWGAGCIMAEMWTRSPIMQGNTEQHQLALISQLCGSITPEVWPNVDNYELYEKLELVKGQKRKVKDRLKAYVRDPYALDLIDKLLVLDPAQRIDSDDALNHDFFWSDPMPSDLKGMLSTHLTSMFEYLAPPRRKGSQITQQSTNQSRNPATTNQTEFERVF
CDK9/cyclinT1 complex, sequence (O60563 whole entry partner, species assumed): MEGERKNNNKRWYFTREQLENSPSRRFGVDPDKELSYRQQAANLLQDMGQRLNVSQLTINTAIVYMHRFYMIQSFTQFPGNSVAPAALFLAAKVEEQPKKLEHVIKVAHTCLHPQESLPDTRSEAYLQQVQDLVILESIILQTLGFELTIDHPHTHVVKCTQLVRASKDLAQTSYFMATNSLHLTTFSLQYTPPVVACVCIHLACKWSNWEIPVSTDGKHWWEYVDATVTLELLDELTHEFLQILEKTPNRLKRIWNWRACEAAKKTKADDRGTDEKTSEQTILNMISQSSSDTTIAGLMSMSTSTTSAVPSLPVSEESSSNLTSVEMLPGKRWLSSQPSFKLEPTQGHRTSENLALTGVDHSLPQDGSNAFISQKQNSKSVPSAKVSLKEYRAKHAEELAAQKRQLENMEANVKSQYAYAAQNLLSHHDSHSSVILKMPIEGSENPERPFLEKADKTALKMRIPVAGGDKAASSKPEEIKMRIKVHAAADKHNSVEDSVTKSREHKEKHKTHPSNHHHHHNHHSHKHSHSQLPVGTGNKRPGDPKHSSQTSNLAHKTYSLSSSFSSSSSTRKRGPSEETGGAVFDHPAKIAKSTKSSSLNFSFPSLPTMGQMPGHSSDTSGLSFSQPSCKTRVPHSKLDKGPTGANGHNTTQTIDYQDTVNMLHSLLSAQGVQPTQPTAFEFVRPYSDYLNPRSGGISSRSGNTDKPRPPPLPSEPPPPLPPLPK
Procedure: (§4) CDK12/CyclinK was diluted in an assay buffer (80 mM MES PH 6.5, 0.01% Tween 20, 50 ug/mL BSA, 10 mM MgCl2) to afford a corresponding enzyme solution with the 2.4 concentration. A compound was dissolved in dimethyl sulfoxide (DMSO) at a concentration of 10 mM. […] 2 ul of a test compound solution was mixed with 5 ul of the enzyme solution; after incubation for 10 min, 5 ul of the polypeptide substrate and ATP mixed solution was added; incubation was carried out for 180 min at 27° C.; and then, the reaction was terminated by adding 4 uL of EDTA with a concentration of 120 mM to each sample. […] A CDK9/cyclinT1 complex (8 nM) and a “5-FAM-CDK9tide” peptide substrate (2 IM, synthetic fluorophore-labeled peptide with the following sequence: 5-FAM-GSRTPMY-NH2, wherein 5-FAM was as defined above and NH2 represented C-terminal amide) were used for a CDK9 inhibition assay. […] A CDK2/cyclinE1 complex (0.5 nM) and “5-FAM-CDK7tide” (2 μM) as defined above were used for CDK2 inhibition assay.
as §1

[4] = tested on: human breast cancer cells HCC70; test: Cell biological activity detection (CyQuant, 72 hours), HCC70; format: cell-based; conditions: incubation for 72 hours
Procedure: as §2, §3

[5] = target: CDK2/cyclinE1 complex (Homo sapiens, UniProt P24941); test: In-vitro enzymatic inhibitory activity testing, CDK2 inhibition assay (Caliper EZ Reader II); format: biochemical; conditions: CDK2/cyclinE1 0.5 nM, 180 min at 27° C.
Procedure: CDK12/CyclinK was diluted in an assay buffer (80 mM MES PH 6.5, 0.01% Tween 20, 50 ug/mL BSA, 10 mM MgCl2) to afford a corresponding enzyme solution with the 2.4 concentration. […] A CDK9/cyclinT1 complex (8 nM) and a “5-FAM-CDK9tide” peptide substrate (2 IM, synthetic fluorophore-labeled peptide with the following sequence: 5-FAM-GSRTPMY-NH2, wherein 5-FAM was as defined above and NH2 represented C-terminal amide) were used for a CDK9 inhibition assay. […] A CDK2/cyclinE1 complex (0.5 nM) and “5-FAM-CDK7tide” (2 μM) as defined above were used for CDK2 inhibition assay.
as §1

[6] = target: CDK7/cyclinH/MAT1 complex (Homo sapiens, UniProt P50613); test: In-vitro enzymatic inhibitory activity testing, CDK7 inhibition assay (Caliper EZ Reader II); format: biochemical; conditions: CDK7/cyclinH/MAT1 6 nM, 180 min at 27° C.
CDK7/cyclinH/MAT1 complex, sequence (P50613 whole entry, species assumed): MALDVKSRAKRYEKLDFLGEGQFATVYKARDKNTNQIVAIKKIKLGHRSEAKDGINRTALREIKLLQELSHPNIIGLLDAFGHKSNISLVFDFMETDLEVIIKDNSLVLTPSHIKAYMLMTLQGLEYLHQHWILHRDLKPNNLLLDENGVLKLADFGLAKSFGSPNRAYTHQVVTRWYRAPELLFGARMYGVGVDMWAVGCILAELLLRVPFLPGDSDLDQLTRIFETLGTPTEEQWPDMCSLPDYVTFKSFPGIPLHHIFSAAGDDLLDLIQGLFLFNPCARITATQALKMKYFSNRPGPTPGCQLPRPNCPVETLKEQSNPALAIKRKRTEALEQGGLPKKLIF
CDK7/cyclinH/MAT1 complex, sequence (P51946 whole entry partner, species assumed): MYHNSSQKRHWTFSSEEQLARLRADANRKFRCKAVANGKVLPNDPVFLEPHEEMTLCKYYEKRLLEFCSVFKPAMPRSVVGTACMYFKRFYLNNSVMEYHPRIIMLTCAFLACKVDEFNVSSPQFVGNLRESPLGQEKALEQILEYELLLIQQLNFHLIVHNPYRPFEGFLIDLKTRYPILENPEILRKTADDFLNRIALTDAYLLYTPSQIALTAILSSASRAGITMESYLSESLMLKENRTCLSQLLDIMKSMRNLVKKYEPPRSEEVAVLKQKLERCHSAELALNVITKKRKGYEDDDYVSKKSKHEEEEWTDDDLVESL
CDK7/cyclinH/MAT1 complex, sequence (P51948 whole entry partner, species assumed): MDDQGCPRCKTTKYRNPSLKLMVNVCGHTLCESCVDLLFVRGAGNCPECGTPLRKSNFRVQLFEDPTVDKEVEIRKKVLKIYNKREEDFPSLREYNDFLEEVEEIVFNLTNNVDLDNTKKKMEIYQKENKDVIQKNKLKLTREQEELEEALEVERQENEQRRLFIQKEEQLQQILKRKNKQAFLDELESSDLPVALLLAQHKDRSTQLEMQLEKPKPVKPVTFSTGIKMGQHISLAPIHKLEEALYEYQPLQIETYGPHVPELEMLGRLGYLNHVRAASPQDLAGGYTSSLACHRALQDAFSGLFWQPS
Procedure: as §4, §1

SMILES	IC50 [1] [µM]	IC50 [2] [µM]	IC50 [3] [µM]	IC50 [5] [µM]	IC50 [6] [µM]	IC50 ([2]; Homo sapiens, A2780, 72 h) [µM]	IC50 [4] [µM]	IC50 ([4]; Homo sapiens, HCC70, 72 h) [µM]
FC(F)(F)c1cnc(NC2CCC3CNCC32)nc1-c1c[nH]c2nc(N3CCOCC3)ccc12 (single isomer, unassigned) [Compound 57]	> 50	0.2 to 5	> 50	> 50	0.2 to 5		0.2 to 5	
CC1(C)COC[C@@H](Nc2ncc(C(F)(F)F)c(-c3c[nH]c4nc(C#N)ccc34)n2)CN1 (single isomer, unassigned) [Compound 64]	5 to 50		> 50	> 50	0.02 to 0.2	0.2 to 5		0.2 to 5
CC1(C)COCC(Nc2ncc(C(F)(F)F)c(-c3c[nH]c4c(P(C)(C)=O)cccc34)n2)CN1 (single isomer, unassigned) [Compound 92, (3-(2-((3,3-dimethyl-1,4-oxazepan-6-yl)amino)-5-(trifluoromethyl)pyrimidin-4-yl)-1H-indole-7-yl)dimethylphosphine oxide]	5 to 50	< 0.02	5 to 50	5 to 50	< 0.02		0.02 to 0.2	
CP(C)(=O)c1cccc2c(-c3nc(NC4CCC5(CCNC5)C4)ncc3C(F)(F)F)c[nH]c12 (single isomer, unassigned) [Compound 98]	5 to 50		5 to 50	0.2 to 5	< 0.02	< 0.02		< 0.02
CP(C)(=O)c1cccc2c(-c3nc(NC4CC45CCNC5)ncc3C(F)(F)F)c[nH]c12 (single isomer, unassigned) [Compound 109]	> 50	0.02 to 0.2	> 50	5 to 50	0.02 to 0.2		0.02 to 0.2	
CP(C)(=O)c1cccc2c(-c3nc(NC4CC45CCNC5)ncc3C(F)(F)F)c[nH]c12 (single isomer, unassigned) [Compound 110]	5 to 50	< 0.02	> 50	5 to 50	< 0.02		0.02 to 0.2	
CP(C)(=O)c1cccc2c(-c3nc(NC4CC45CCNC5)ncc3C(F)(F)F)c[nH]c12 (single isomer, unassigned) [Compound 111]	> 50	< 0.02	> 50	5 to 50	0.02 to 0.2		0.02 to 0.2	
CP(C)(=O)c1cccc2c(-c3nc(NCC4(O)CCOC4)ncc3C(F)(F)F)c[nH]c12 (single isomer, unassigned) [Compound 121]	> 50		> 50	5 to 50	0.02 to 0.2	0.2 to 5		0.02 to 0.2
CP(C)(=O)c1cccc2c(-c3nc(NCC4(O)CCOC4)ncc3C(F)(F)F)c[nH]c12 (single isomer, unassigned) [Compound 122]	> 50	0.2 to 5	> 50	5 to 50	0.02 to 0.2		0.02 to 0.2	
CP(C)(=O)c1cccc2c(-c3nc(NCC(O)C(F)F)ncc3C(F)(F)F)c[nH]c12 (single isomer, unassigned) [Compound 124]	> 50	0.02 to 0.2	> 50	5 to 50	< 0.02			0.02 to 0.2
CP(C)(=O)c1cccc2c(-c3nc(NCC(O)C(F)F)ncc3C(F)(F)F)c[nH]c12 (single isomer, unassigned) [Compound 125]	> 50	0.2 to 5	> 50	5 to 50	0.02 to 0.2		0.02 to 0.2	

The next lines start with results.

IC50 [1] [µM]	IC50 [2] [µM]	IC50 [3] [µM]	IC50 [5] [µM]	IC50 [6] [µM]	IC50 ([2]; Homo sapiens, A2780, 72 h) [µM]	SMILES	IC50 [4] [µM]	IC50 ([4]; Homo sapiens, HCC70, 72 h) [µM]
5 to 50	0.2 to 5	> 50	5 to 50	0.2 to 5		FC(F)(F)c1cnc(NC2CCCNCC2)nc1-c1c[nH]c2nc(N3CCOCC3)ccc12 (single isomer, unassigned) [Compound 49]	0.2 to 5	
5 to 50		> 50	> 50	0.02 to 0.2	0.2 to 5	CC1(C)COCC(Nc2ncc(C(F)(F)F)c(-c3c[nH]c4nc(C#N)ccc34)n2)CN1 (single isomer, unassigned) [Compound 63]		0.2 to 5
0.2 to 5	< 0.02	5 to 50	0.2 to 5	< 0.02		CP(C)(=O)c1cccc2c(-c3nc(NC4CCC5(CCNC5)C4)ncc3C(F)(F)F)c[nH]c12 (single isomer, unassigned) [Compound 100]	< 0.02	
0.2 to 5		5 to 50	0.2 to 5	< 0.02	< 0.02	CP(C)(=O)c1cccc2c(-c3nc(NC4CC45CCNC5)ncc3C(F)(F)F)c[nH]c12 (single isomer, unassigned) [Compound 108]		< 0.02
0.2 to 5		5 to 50	0.2 to 5	< 0.02	< 0.02	CN(C)CC1CCCC1Nc1ncc(C(F)(F)F)c(-c2c[nH]c3c(P(C)(C)=O)cccc23)n1 (single isomer, unassigned) [Compound 135]		< 0.02
